Values after ≈ are worked out from the molar mass of the structure shown.
Columns and labels:
Format in all cases: in vivo
[1] = system: diamond-back moth (Plutella maculipennis); assay: Field test, diamond-back moth on cabbage (Table 8); details: 3% dust, 5 kg./10 a., after 7 days, on 20 cabbages
From the text: (§1) A 3% dust of each compound of the present invention was applied, in a proportion of 5 kg./10 a., to the field of cabbage where a large number of tobacco cut worm and diamond-back moth were generated, After 7 days, 20 cabbages were pulled out and the number of insects thereon were checked.

[2] = system: common purslane (Portulaca oleracea); assay: Pre-emergence application, herbicidal effect on common purslane (Table 1); parameters: key: 0: not damaged; 5: completely killed; details: 20 days after application, score 0-5
In short: (§2)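 Scores run from 0 (undamaged) to 5 (fully killed), read 20 days post-treatment. Compounds were applied as water-diluted wettable powders to soil over freshly covered seeds in ~10 cm pots, with plants kept in a greenhouse.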

[3] = system: large crabgrass (Digitaria sanguinalis); assay: Pre-emergence application, herbicidal effect on large crabgrass (Table 1); parameters: key: 0: not damaged; 5: completely killed; details: 20 days after application, score 0-5
In short: as §2

radish = assay: Pre-emergence application, herbicidal effect on radish (Table 1); parameters: key: 0: not damaged; 5: completely killed; details: 20 days after application, score 0-5
In short: as §2

[4] = system: redroot pigweed (Amaranthus retroflexus); assay: Pre-emergence application, herbicidal effect on redroot pigweed (Table 1); parameters: key: 0: not damaged; 5: completely killed; details: 20 days after application, score 0-5
In short: as §2

[5] = system: barnyard grass (Echinochloa crus-galli); assay: Pre-emergence application, herbicidal effect on barnyard grass (Table 1); parameters: key: 0: not damaged; 5: completely killed; details: 20 days after application, score 0-5
In short: as §2

[6] = system: tobacco cut worm (Spondoptera litura); assay: Lethal effect on tobacco cut worm (Table 5); details: tobacco cutworm, larvae on chinese cabbage leaves, 48 h
Procedure: The present compounds of an emulsifiable concentrate type were applied to leaves of chinese cabbage in the form of an 1000 fold dilute solution. After air-drying, third to fourth instar larvae of tobacco cut worm were released and after 48 hours the death and alive were observed.

[7] = system: common lambsquarter (Chenopodium album); assay: Pre-emergence application, herbicidal effect on common lambsquarter (Table 1); parameters: key: 0: not damaged; 5: completely killed; details: 20 days after application, score 0-5
In short: as §2

[8] = system: barnyard grass (Echinochloa crus-galli); assay: Water application, herbicidal effect on barnyard grass (Table 2); parameters: key: 0: not damaged; 5: completely killed; details: 25 days, score 0-5
In short: (§3)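 Scores (0–5) taken 25 days post-treatment. Wettable-powder formulations were applied into standing water over paddy soil holding 3-leaf-stage transplanted rice, sown Echinochloa and naturally emerging monochoria, false pimpernel and toothcup.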

[9] = system: carmine mite (Tetranychus telavius); assay: Lethal effect on carmine mite, leaf dipping (Table 3); details: foliar, 48 h
In short: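 Kidney bean leaves (2-leaf stage) infested with adult mites dipped 1 min in aqueous wettable-powder solutions. Mortality counted microscopically after 48 h; LC50 derived from mortality.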

rice = assay: Water application, phytotoxicity on rice (Table 2); parameters: key: 0: no effect; 1: very slightly affected; 2: slightly affected; 3: moderately affected; 4: considerably affected; 5: completely killed; details: 25 days, score 0-5
In short: as §3

nematode = assay: Effect on nematode (Table 7); parameters: tested at 500 ppm; details: 500 p.p.m., 24 hours
Procedure: 0.5 ml. of a nematode-containing aqueous solution separated from food according to Baermann's method was placed in a test tube with ground stopper containing 0.5 ml. of an aqueous dilute solution of each emulsifiable concentrates of the present compounds. The concentration of the active ingredient in the mixture was adjusted to 500 p.p.m. After 24 hours, the death and alive were observed microscopically to calculate the mortality.

[10] = system: broad-leaved weeds, e.g., monochoria, false pimpernel and toothcup; assay: Water application, herbicidal effect on broad-leaved weeds (Table 2); parameters: key: 0: not damaged; 5: completely killed; details: 25 days, score 0-5
In short: as §3

[11] = system: tobacco cut worm (Spodoptera litura); assay: Field test, tobacco cut worm on cabbage (Table 8); details: 3% dust, 5 kg./10 a., after 7 days, on 20 cabbages
From the text: as §1

Structure (SMILES) | Number of insects, diamond-back moth [1] | Herbicidal effect, common purslane ([2]; 10 g./a.) | Herbicidal effect, common purslane ([2]; 20 g./a.) | Herbicidal effect, common purslane ([2]; 40 g./a.) | Herbicidal effect, large crabgrass ([3]; 10 g./a.) | Herbicidal effect, large crabgrass ([3]; 20 g./a.) | Herbicidal effect, large crabgrass ([3]; 40 g./a.) | Herbicidal effect, radish (radish; 10 g./a.) | Herbicidal effect, radish (radish; 20 g./a.) | Herbicidal effect, radish (radish; 40 g./a.) | Herbicidal effect, redroot pigweed ([4]; 10 g./a.) | Herbicidal effect, redroot pigweed ([4]; 20 g./a.) | Herbicidal effect, redroot pigweed ([4]; 40 g./a.) | Herbicidal effect, barnyard grass ([5]; 10 g./a.) | Herbicidal effect, barnyard grass ([5]; 20 g./a.) | Herbicidal effect, barnyard grass ([5]; 40 g./a.) | Mortality [6] [%] | Herbicidal effect, common lambsquarter ([7]; 10 g./a.) | Herbicidal effect, common lambsquarter ([7]; 20 g./a.) | Herbicidal effect, common lambsquarter ([7]; 40 g./a.) | also measured
CCCSP(=O)(OCC)SCC(=O)N1CCCCC1C (stereo not shown) [Compound 2, O-ethyl-S-n-propyl-S(2-methylpiperidinocarbomoylmethyl)phosphorodithiolate] | 8 | 5 | 5 | 5 | 5 | 5 | 5 | 0 | 0 | 1 | 5 | 5 | 5 | 5 | 5 | 5 | 100 | 5 | 5 | 5 | Herbicidal effects, barnyard grass ([8]; 10 g/a): 5; Herbicidal effects, barnyard grass ([8]; 20 g/a): 5; Herbicidal effects, barnyard grass ([8]; 40 g/a): 5; LC50 [9]: 4.6 µg/mL (≈ 13.6 µM); Phytotoxicity on rice (rice; 10 g/a): 0; Phytotoxicity on rice (rice; 20 g/a): 1; Phytotoxicity on rice (rice; 40 g/a): 1; Mortality (nematode): 100%; Herbicidal effects, broad-leaved weeds ([10]; 10 g/a): 5; Herbicidal effects, broad-leaved weeds ([10]; 20 g/a): 5; Herbicidal effects, broad-leaved weeds ([10]; 40 g/a): 5; Number of insects, tobacco cut worm [11]: 0
CCOP(=O)(SCC(=O)N1CCCCC1C)SC(C)C (stereo not shown) [Compound 3] | 12 | 5 | 5 | 5 | 5 | 5 | 5 | 0 | 0 | 0 | 4 | 5 | 5 | 5 | 5 | 5 | 83.3 | 5 | 5 | 5 | Herbicidal effects, barnyard grass ([8]; 10 g/a): 5; Herbicidal effects, barnyard grass ([8]; 20 g/a): 5; Herbicidal effects, barnyard grass ([8]; 40 g/a): 5; LC50 [9]: 18.5 µg/mL (≈ 54.5 µM); Phytotoxicity on rice (rice; 10 g/a): 0; Phytotoxicity on rice (rice; 20 g/a): 0; Phytotoxicity on rice (rice; 40 g/a): 0; Mortality (nematode): 100%; Herbicidal effects, broad-leaved weeds ([10]; 10 g/a): 5; Herbicidal effects, broad-leaved weeds ([10]; 20 g/a): 5; Herbicidal effects, broad-leaved weeds ([10]; 40 g/a): 5; Number of insects, tobacco cut worm [11]: 1

— US4015974A, “Amido phosphorothiolates” (priority 1972, dated 1977)
